From patent US12077503B2, “Substituted cyclic amides and their use as herbicides” (FMC CORPORATION, priority 2015, dated 2024)

Key:
Assay type in all cases: in vivo
[1] = tested on: barnyardgrass (Echinochloa crus-galli); test: Test G Pre-Emergence Protocol; conditions: Echinochloa crus-galli, pre-emergence, 312 h, evaluated after 13 days; for pest or weed control at 15.625 g/ha: 15.625 g ai/ha; for pest or weed control at 15.625 g/ha / pest or weed control at 250 g/ha: read-out: Barnyardgrass damage rating (100=total damage to plant; 0=no damage to plant); for pest or weed control at 62.5 g/ha: 62.5 g ai/ha, 100=total damage to plant, 0=no damage to plant, read-out: Barnyardgrass damage rating; for pest or weed control at 250 g/ha: 250 g ai/ha
In short: (§1)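 Visual injury (0–100) at day 13 after a single pre-emergence spray. Rates: 15.625, 62.5, 250 g/ha in acetone–water 50:50 with 0.5% Tween 20. Growth conditions: 24/16° C, 14 h light, 65% humidity.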

corn (Zea mays) [2] = test: Test G Pre-Emergence Protocol; conditions: Zea mays, pre-emergence, 312 h, evaluated after 13 days; for plant injury at 15.625 g/ha: 15.625 g ai/ha; for plant injury at 15.625 g/ha / plant injury at 250 g/ha: read-out: Corn damage rating (100=total damage to plant; 0=no damage to plant); for plant injury at 62.5 g/ha: 62.5 g ai/ha, 100=total damage to plant, 0=no damage to plant, read-out: Corn damage rating; for plant injury at 250 g/ha: 250 g ai/ha
In short: as §1

[3] = tested on: giant foxtail (Setaria faberi); test: Test G Pre-Emergence Protocol; conditions: Setaria faberi, pre-emergence, 312 h, evaluated after 13 days; for pest or weed control at 15.625 g/ha: 15.625 g ai/ha; for pest or weed control at 15.625 g/ha / pest or weed control at 250 g/ha: read-out: Foxtail, Giant damage rating (100=total damage to plant; 0=no damage to plant); for pest or weed control at 62.5 g/ha: 62.5 g ai/ha, 100=total damage to plant, 0=no damage to plant, read-out: Foxtail, Giant damage rating; for pest or weed control at 250 g/ha: 250 g ai/ha
In short: as §1

[4] = tested on: ivy-leaved morning glory (Ipomoea hederacea); test: Test G Pre-Emergence Protocol; conditions: Ipomoea, pre-emergence, 312 h, evaluated after 13 days; for pest or weed control at 15.625 g/ha: 15.625 g ai/ha; for pest or weed control at 15.625 g/ha / pest or weed control at 250 g/ha: read-out: Morningglory, Ivy-leaved damage rating (100=total damage to plant; 0=no damage to plant); for pest or weed control at 62.5 g/ha: 62.5 g ai/ha, 100=total damage to plant, 0=no damage to plant, read-out: Morningglory, Ivy-leaved damage rating; for pest or weed control at 250 g/ha: 250 g ai/ha
In short: as §1

[5] = tested on: redroot pigweed (Amaranthus retroflexus); test: Test G Pre-Emergence Protocol; conditions: Amaranthus retroflexus, pre-emergence, 312 h, evaluated after 13 days; for pest or weed control at 15.625 g/ha: 15.625 g ai/ha; for pest or weed control at 15.625 g/ha / pest or weed control at 250 g/ha: read-out: Pigweed, Redroot damage rating (100=total damage to plant; 0=no damage to plant); for pest or weed control at 62.5 g/ha: 62.5 g ai/ha, 100=total damage to plant, 0=no damage to plant, read-out: Pigweed, Redroot damage rating; for pest or weed control at 250 g/ha: 250 g ai/ha
In short: as §1

[6] = tested on: velvetleaf (Abutilon theophrasti); test: Test G Pre-Emergence Protocol; conditions: Abutilon theophrasti, pre-emergence, 312 h, evaluated after 13 days; for pest or weed control at 15.625 g/ha: 15.625 g ai/ha; for pest or weed control at 15.625 g/ha / pest or weed control at 250 g/ha: read-out: Velvetleaf damage rating (100=total damage to plant; 0=no damage to plant); for pest or weed control at 62.5 g/ha: 62.5 g ai/ha, 100=total damage to plant, 0=no damage to plant, read-out: Velvetleaf damage rating; for pest or weed control at 250 g/ha: 250 g ai/ha
In short: as §1

[7] = tested on: barnyardgrass (Echinochloa crus-galli); test: Test G Post-Emergence Protocol; conditions: Echinochloa crus-galli, post-emergence, 312 h, read-out: Barnyardgrass damage rating; for pest or weed control at 15.625 g/ha: 15.625 g ai/ha, evaluated after 13 days (100=total damage to plant; 0=no damage to plant); for pest or weed control at 62.5 g/ha: 62.5 g ai/ha; for pest or weed control at 62.5 g/ha / pest or weed control at 250 g/ha: evaluated after 13 days, 100=total damage to plant, 0=no damage to plant; for pest or weed control at 250 g/ha: 250 g ai/ha
In short: (§2)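 Pot-grown seedlings, 8 days old, raised in a glasshouse at 24/16 °C day/night with 14 h light and 65% humidity, were sprayed post-emergence with test compound in acetone/water (50:50) plus 0.5% Tween 20 at 15.625, 62.5 or 250 g/ha. Damage was scored visually 13 days later on a 0–100 scale (100 = total damage).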

corn (Zea mays) [8] = test: Test G Post-Emergence Protocol; conditions: Zea mays, post-emergence, 312 h, read-out: Corn damage rating; for plant injury at 15.625 g/ha: 15.625 g ai/ha, evaluated after 13 days (100=total damage to plant; 0=no damage to plant); for plant injury at 62.5 g/ha: 62.5 g ai/ha; for plant injury at 62.5 g/ha / plant injury at 250 g/ha: evaluated after 13 days, 100=total damage to plant, 0=no damage to plant; for plant injury at 250 g/ha: 250 g ai/ha
In short: as §2

[9] = tested on: giant foxtail (Setaria faberi); test: Test G Post-Emergence Protocol; conditions: Setaria faberi, post-emergence, 312 h, read-out: Foxtail, Giant damage rating; for pest or weed control at 15.625 g/ha: 15.625 g ai/ha, evaluated after 13 days (100=total damage to plant; 0=no damage to plant); for pest or weed control at 62.5 g/ha: 62.5 g ai/ha; for pest or weed control at 62.5 g/ha / pest or weed control at 250 g/ha: evaluated after 13 days, 100=total damage to plant, 0=no damage to plant; for pest or weed control at 250 g/ha: 250 g ai/ha
In short: as §2

[10] = tested on: ivy-leaved morning glory (Ipomoea hederacea); test: Test G Post-Emergence Protocol; conditions: Ipomoea, post-emergence, 312 h, read-out: Morningglory, Ivy-leaved damage rating; for pest or weed control at 15.625 g/ha: 15.625 g ai/ha, evaluated after 13 days (100=total damage to plant; 0=no damage to plant); for pest or weed control at 62.5 g/ha: 62.5 g ai/ha; for pest or weed control at 62.5 g/ha / pest or weed control at 250 g/ha: evaluated after 13 days, 100=total damage to plant, 0=no damage to plant; for pest or weed control at 250 g/ha: 250 g ai/ha
In short: as §2

[11] = tested on: redroot pigweed (Amaranthus retroflexus); test: Test G Post-Emergence Protocol; conditions: Amaranthus retroflexus, post-emergence, 312 h, read-out: Pigweed, Redroot damage rating; for pest or weed control at 15.625 g/ha: 15.625 g ai/ha, evaluated after 13 days (100=total damage to plant; 0=no damage to plant); for pest or weed control at 62.5 g/ha: 62.5 g ai/ha; for pest or weed control at 62.5 g/ha / pest or weed control at 250 g/ha: evaluated after 13 days, 100=total damage to plant, 0=no damage to plant; for pest or weed control at 250 g/ha: 250 g ai/ha
In short: as §2

[12] = tested on: velvetleaf (Abutilon theophrasti); test: Test G Post-Emergence Protocol; conditions: Abutilon theophrasti, post-emergence, 312 h, read-out: Velvetleaf damage rating; for pest or weed control at 15.625 g/ha: 15.625 g ai/ha, evaluated after 13 days (100=total damage to plant; 0=no damage to plant); for pest or weed control at 62.5 g/ha: 62.5 g ai/ha; for pest or weed control at 62.5 g/ha / pest or weed control at 250 g/ha: evaluated after 13 days, 100=total damage to plant, 0=no damage to plant; for pest or weed control at 250 g/ha: 250 g ai/ha
In short: as §2

## Cc1cc(C2CN(C)C(=O)C2C(=O)Nc2cccc(F)c2F)cc(Cl)c1F (stereo not drawn) [Compound 1708]
[1]
  pest or weed control at 15.625 g/ha: 20%
  pest or weed control at 62.5 g/ha: 30%
  pest or weed control at 250 g/ha: 60%
Corn (Zea mays) [2]
  plant injury at 15.625 g/ha: 0%
  plant injury at 62.5 g/ha: 0%
  plant injury at 250 g/ha: 0%
[3]
  pest or weed control at 15.625 g/ha: 60%
  pest or weed control at 62.5 g/ha: 80%
  pest or weed control at 250 g/ha: 90%
[4]
  pest or weed control at 15.625 g/ha: 0%
  pest or weed control at 62.5 g/ha: 0%
  pest or weed control at 250 g/ha: 20%
[5]
  pest or weed control at 15.625 g/ha: 0%
  pest or weed control at 62.5 g/ha: 0%
  pest or weed control at 250 g/ha: 0%
[6]
  pest or weed control at 15.625 g/ha: 0%
  pest or weed control at 62.5 g/ha: 0%
  pest or weed control at 250 g/ha: 0%
[7]
  pest or weed control at 15.625 g/ha: 40%
  pest or weed control at 62.5 g/ha: 50%
  pest or weed control at 250 g/ha: 80%
Corn (Zea mays) [8]
  plant injury at 15.625 g/ha: 10%
  plant injury at 62.5 g/ha: 30%
  plant injury at 250 g/ha: 70%
[9]
  pest or weed control at 15.625 g/ha: 40%
  pest or weed control at 62.5 g/ha: 60%
  pest or weed control at 250 g/ha: 60%
[10]
  pest or weed control at 15.625 g/ha: 20%
  pest or weed control at 62.5 g/ha: 20%
  pest or weed control at 250 g/ha: 20%
[11]
  pest or weed control at 15.625 g/ha: 0%
  pest or weed control at 62.5 g/ha: 0%
  pest or weed control at 250 g/ha: 0%
[12]
  pest or weed control at 15.625 g/ha: 0%
  pest or weed control at 62.5 g/ha: 0%
  pest or weed control at 250 g/ha: 0%

## CN1CC(c2ccc(C(F)(F)F)c(C(F)(F)F)c2)C(C(=O)Nc2cccc(F)c2F)C1=O (stereo not drawn) [Compound 1714]
[1]
  pest or weed control at 15.625 g/ha: 0%
  pest or weed control at 62.5 g/ha: 50%
  pest or weed control at 250 g/ha: 80%
Corn (Zea mays) [2]
  plant injury at 15.625 g/ha: 0%
  plant injury at 62.5 g/ha: 0%
  plant injury at 250 g/ha: 10%
[3]
  pest or weed control at 15.625 g/ha: 30%
  pest or weed control at 62.5 g/ha: 70%
  pest or weed control at 250 g/ha: 80%
[4]
  pest or weed control at 15.625 g/ha: 0%
  pest or weed control at 62.5 g/ha: 0%
  pest or weed control at 250 g/ha: 10%
[5]
  pest or weed control at 15.625 g/ha: 0%
  pest or weed control at 62.5 g/ha: 0%
  pest or weed control at 250 g/ha: 10%
[6]
  pest or weed control at 15.625 g/ha: 0%
  pest or weed control at 62.5 g/ha: 0%
  pest or weed control at 250 g/ha: 0%
[7]
  pest or weed control at 15.625 g/ha: 40%
  pest or weed control at 62.5 g/ha: 70%
  pest or weed control at 250 g/ha: 80%
Corn (Zea mays) [8]
  plant injury at 15.625 g/ha: 20%
  plant injury at 62.5 g/ha: 30%
  plant injury at 250 g/ha: 50%
[9]
  pest or weed control at 15.625 g/ha: 70%
  pest or weed control at 62.5 g/ha: 80%
  pest or weed control at 250 g/ha: 80%
[10]
  pest or weed control at 15.625 g/ha: 10%
  pest or weed control at 62.5 g/ha: 20%
  pest or weed control at 250 g/ha: 60%
[11]
  pest or weed control at 15.625 g/ha: 70%
  pest or weed control at 62.5 g/ha: 80%
  pest or weed control at 250 g/ha: 90%
[12]
  pest or weed control at 15.625 g/ha: 0%
  pest or weed control at 62.5 g/ha: 30%
  pest or weed control at 250 g/ha: 40%
